Target: T1, S1P lyase (Mus musculus, UniProt Q8R0X7)
T1 construct: The extirpated thymus was crushed; from tissue; host or cells: thymus of BALB/c mice (thymus extract)
T1 sequence (Q8R0X7 1-568): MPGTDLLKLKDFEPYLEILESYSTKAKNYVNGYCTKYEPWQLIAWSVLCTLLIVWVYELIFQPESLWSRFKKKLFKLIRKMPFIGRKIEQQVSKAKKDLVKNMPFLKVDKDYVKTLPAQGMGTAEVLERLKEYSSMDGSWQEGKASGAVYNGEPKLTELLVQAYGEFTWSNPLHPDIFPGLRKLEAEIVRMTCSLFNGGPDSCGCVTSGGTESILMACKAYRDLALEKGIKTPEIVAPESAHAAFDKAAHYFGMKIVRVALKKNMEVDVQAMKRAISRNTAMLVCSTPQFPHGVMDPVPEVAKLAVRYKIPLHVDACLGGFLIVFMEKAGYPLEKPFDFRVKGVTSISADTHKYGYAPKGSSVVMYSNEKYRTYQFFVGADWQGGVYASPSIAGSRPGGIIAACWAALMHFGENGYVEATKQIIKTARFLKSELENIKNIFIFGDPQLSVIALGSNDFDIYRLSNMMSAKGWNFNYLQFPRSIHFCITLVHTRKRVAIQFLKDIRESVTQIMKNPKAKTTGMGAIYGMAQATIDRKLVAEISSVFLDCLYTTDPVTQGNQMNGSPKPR
Test: S1P lyase inhibitory capacity in mice (thymus extract after oral dosing)
Assay type: in vivo
Details: BALB/c mice, single oral dose, S1P lyase activity of thymus extract with [3H]dhS1P
Procedure: Male BALB/c mice at age 6 weeks were purchased from Charles River Laboratories Japan Inc. Mice that had reached age 7 weeks after 1-week acclimation were used for the experiment. A group of 5 animals was used for the experiment. The necessary amount of the analyte was weighed, and subsequently suspended in a 0.5% MC solution using a mortar and a pestle. The solution to be administered was prepared so as to be 10 mL per 1 kg of body weight. The prepared compound solution was administered orally in a single dose using a stomach tube.
Dipotassium dihydrogen ethylenediaminetetraacetate (EDTA-2K, Nacalai Tesque, Inc.) was dissolved with water for injection so as to be 5% (5% EDTA-2K solution). […] At that time, the thymus was also extirpated. The obtained blood was handled under the condition of room temperature until measurement. […]
The extirpated thymus was crushed by means of either a method using zirconia beads in the presence of 500 μl, of a homogenization buffer (50 mM HEPES-NaOH (pH=7.4), 0.15 M NaCl, 10% Glycerol, 1 mM EDTA, 1 mM DTT, complete protease inhibitor cocktail (Roche, #4693132)), or a method using Potter-Elvehjem type homogenizer after mincing. […] After the proteins of the supernatant were quantified with Bradford method, the supernatant was instantly frozen with liquid nitrogen, and subsequently stored at −80° C. […]

Row | Structure (SMILES) | S1P lyase inhibition in mice
1 | CCOCn1cc(CO)nc1C(C)=O [Example 1, 1-(1-Ethoxymethyl-4-hydroxymethyl-1H-imidazol-2-yl)ethanone] | inhibited S1P lyase in mice
2 | COCn1cc(CO)nc1C(C)=O [Example 5, 1-(4-Hydroxymethyl-1-methoxymethyl-1H-imidazol-2-yl)ethanone] | inhibited S1P lyase in mice

Reference: US8653126B2, “Imidazole derivative” (Daiichi Sankyo Company, Limited, priority 2010, dated 2014)
